Results from the supplement of paper PMC4862054.

Legend:
Assay in all cases: normalised response (% of control), CellTiter-Glo; higher = more viable cells (100 = DMSO, 0 = benzethonium chloride kill control)
Details in all cases: incubation time: 72 h
[1] = test system: MDA-MB-468
Summary of the method: (§1)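 Compound was dispensed into 384-well plates at 5 concentrations in 10-fold steps spanning a 10,000-fold range specific to that compound. Breast cancer cell lines were added as 20 µl suspension and left for 72 h before CellTox Green fluorescence (485/520 nm) and then CellTiter-Glo luminescence, read after 10 min at room temperature. Each reported value is the normalised signal at one concentration, with 0.1 % DMSO set at 100 and a positive kill control at 0 on each plate.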

[2] = test system: MFM-223
Summary of the method: as §1

[3] = test system: HCC1599
Summary of the method: as §1

[4] = test system: BT-549
Summary of the method: as §1

[5] = test system: HCC1143
Summary of the method: as §1

[6] = test system: CAL-51
Summary of the method: as §1

[7] = test system: HCC1937
Summary of the method: as §1

[8] = test system: MCF-10A
Summary of the method: as §1

[9] = test system: CAL-85-1
Summary of the method: as §1

[10] = test system: DU-4475
Summary of the method: as §1

[11] = test system: MDA-MB-436
Summary of the method: as §1

[12] = test system: CAL-148
Summary of the method: as §1

[13] = test system: MDA-MB-453
Summary of the method: as §1

[14] = test system: MDA-MB-231
Summary of the method: as §1

[15] = test system: HDQ-P1
Summary of the method: as §1

[16] = test system: CAL-120
Summary of the method: as §1

[17] = test system: BT-474
Summary of the method: as §1

[18] = test system: Hs578T
Summary of the method: as §1

[19] = test system: SK-BR-3
Summary of the method: as §1

SMILES | normalised response [1] | normalised response [2] | normalised response [3] | normalised response [4] | normalised response [5] | normalised response [6] | normalised response [7] | normalised response [8] | normalised response [9] | normalised response [10] | normalised response [11] | normalised response [12] | normalised response [13] | normalised response [14] | normalised response [15] | normalised response [16] | normalised response [17] | normalised response [18] | normalised response [19]
Cc1cc(Nc2nc(N[C@@H](C)c3ncc(F)cn3)ncc2Cl)[nH]n1 [AZD1480] (1000 nM) | 84.6% | 50.8% | 104% | 82.1% | 92.7% | 110% | 96% | 89.5% | 96% | 81.7% | 91.6% | 87.3% | 72.4% | 78.2% | 93.6% | 70% | 82.5% | 82% | 90.5%
CNC(=O)c1ccccc1Sc1ccc2c(/C=C/c3ccccn3)n[nH]c2c1 [Axitinib] (10000 nM) | 24.5% | 49.3% | 69% | 49.7% | 79% | 38.6% | 79.2% | 78.6% | 120% | 76% | 64.1% | 67% | 113% | 94.5% | 77.8% | 75.8% | 80.4% | 61.4% | 77%
CC(O)(CS(=O)(=O)c1ccc(F)cc1)C(=O)Nc1ccc(C#N)c(C(F)(F)F)c1 (configuration not stated) [Bicalutamide] (10000 nM) | 109% | 101% | 95.5% | 94.2% | 104% | 92.8% | 93.8% | 107% | 101% | 98.4% | 114% | 107% | 88.5% | 106% | 96.4% | 105% | 108% | 95.6% | 103%
CCNC(=O)CCC/C=C\C[C@@H]1[C@@H](/C=C/[C@@H](O)CCc2ccccc2)[C@H](O)C[C@@H]1O [Bimatoprost] (5500 nM) | 91.6% | 88.2% | 89.5% | 102% | 94.8% | 160% | 91.9% | 90.3% | 91.1% | 96.7% | 104% | 88.3% | 91.2% | 99.5% | 91.7% | 95.8% | 95% | 101% | 83.8%
COc1cc(Nc2c(C#N)cnc3cc(OCCCN4CCN(C)CC4)c(OC)cc23)c(Cl)cc1Cl [Bosutinib] (10000 nM) | 1.43% | 41.2% | 13.5% | 15.6% | 46.6% | 25% | 5.6% | 1.72% | 0.33% | 70% | 5.63% | 33.3% | 6.11% | 0.86% | 9.28% | 43.4% | 2.86% | 48.5% | 1.81%
Cn1cc(C2=C(c3cn(C4CCN(Cc5ccccn5)CC4)c4ccccc34)C(=O)NC2=O)c2ccccc21 [Enzastaurin] (10000 nM) | 82.9% | 103% | 78.2% | 61.2% | 96.5% | 82.1% | 101% | 87.5% | 85.1% | 105% | 101% | 107% | 101% | 102% | 70.1% | 91.1% | 96% | 91% | 85.6%
CC(C)(C)NC(=O)[C@H]1CC[C@H]2[C@@H]3CC[C@H]4NC(=O)C=C[C@]4(C)[C@H]3CC[C@]12C [Finasteride] (10000 nM) | 102% | 93.4% | 97% | 91.7% | 96.6% | 91.7% | 97.8% | 110% | 96.5% | 103% | 108% | 105% | 93.4% | 102% | 95.7% | 99.7% | 96.5% | 99.9% | 94.4%
Nc1ccn([C@@H]2O[C@H](CO)[C@@H](O)C2(F)F)c(=O)n1 [Gemcitabine] (1000 nM) | 22.1% | 97.7% | 41.4% | 44.7% | 38.9% | 34% | 85.8% | 65.8% | 40.5% | 78.5% | 30.7% | 51% | 74.5% | 79.5% | 82.8% | 73% | 74.2% | 74.9% | 42.7%
CC(C)C[C@H](NC(=O)[C@@H](COC(C)(C)C)NC(=O)[C@H](Cc1ccc(O)cc1)NC(=O)[C@H](CO)NC(=O)[C@H](Cc1c[nH]c2ccccc12)NC(=O)[C@H](Cc1cnc[nH]1)NC(=O)[C@@H]1CCC(=O)N1)C(=O)N[C@@H](CCCNC(=N)N)C(=O)N1CCC[C@H]1C(=O)NNC(N)=O [Goserelin] (10000 nM) | 93.7% | 98.9% | 97.5% | 101% | 101% | 113% | 96% | 100% | 93.8% | 97.1% | 97.7% | 91.2% | 101% | 101% | 101% | 94.8% | 92.6% | 96.5% | 102%
CC(=O)[C@]1(O)Cc2c(O)c3c(c(O)c2[C@@H](O[C@H]2C[C@H](N)[C@H](O)[C@H](C)O2)C1)C(=O)c1ccccc1C3=O [Idarubicin] (1000 nM) | 5.57% | 9.33% | 7.7% | 6.26% | 16.6% | 0.98% | 30.1% | 27.3% | 3.35% | 0.36% | 20.6% | 0.6% | 31.2% | 24.7% | 39% | 30% | 16.6% | 13.1% | 7.62%
C/C(=C\c1csc(C)n1)[C@@H]1C[C@@H]2O[C@]2(C)CCC[C@H](C)[C@H](O)[C@@H](C)C(=O)C(C)(C)[C@@H](O)CC(=O)N1 [Ixabepilone] (1000 nM) | 23% | 101% | 115% | 20.8% | 97.6% | 23.7% | 104% | 95.6% | 26.1% | 100% | 103% | 107% | 106% | 73.8% | 99.1% | 98% | 41.9% | 99% | 104%
C=CCn1c(=O)c2cnc(Nc3ccc(N4CCN(C)CC4)cc3)nc2n1-c1cccc(C(C)(C)O)n1 [MK1775] (10000 nM) | 6.6% | 36.1% | 4.65% | 6.99% | 17.5% | 8.21% | 28.3% | 19% | 11.4% | 11.9% | 15.8% | 9.04% | 44% | 23.7% | 17.4% | 22.8% | 29.4% | 22% | 8.92%
CO[C@@H]1[C@H](N(C)C(=O)c2ccccc2)C[C@H]2O[C@]1(C)n1c3ccccc3c3c4c(c5c6ccccc6n2c5c31)C(=O)NC4 [Midostaurin] (10000 nM) | 29.4% | 66.5% | 102% | 4.02% | 45.9% | 11.5% | 50.1% | 24.9% | 76% | 34.1% | 68.8% | 88.1% | 110% | 40.7% | 54.4% | 46.2% | 41.7% | 16.8% | 45.2%
CO[C@@]12[C@H](COC(N)=O)C3=C(C(=O)C(C)=C(N)C3=O)N1C[C@@H]1N[C@@H]12 [Mitomycin C] (10000 nM) | 22.5% | 86.5% | 57.4% | 15% | 71% | 5.75% | 73.3% | 73% | 57% | 69% | 41.7% | 51% | 85.8% | 82.5% | 84.1% | 88.1% | 69.5% | 91.1% | 58.4%
CCNC(=O)c1noc(-c2cc(C(C)C)c(O)cc2O)c1-c1ccc(CN2CCOCC2)cc1 [NVP-AUY922] (1000 nM) | 22.6% | 36.3% | 77% | 39.8% | 38% | 13.5% | 28.3% | 16.7% | 21% | -0.14% | 50.9% | 29.3% | 26.3% | 24.9% | 23.6% | 47.9% | 25.6% | 35.6% | 39.4%
CC1(C)CCC(c2ccc(Cl)cc2)=C(CN2CCN(c3ccc(C(=O)NS(=O)(=O)c4ccc(N[C@H](CCN5CCOCC5)CSc5ccccc5)c(S(=O)(=O)C(F)(F)F)c4)cc3)CC2)C1 [Navitoclax] (10000 nM) | 78% | 55.6% | 93.1% | 86.7% | 77.8% | 74.5% | 56.9% | 92.5% | 86.2% | 72.4% | 90.7% | 72.4% | 60.3% | 16.1% | 66.8% | 37.4% | 23.5% | 79.3% | 73.2%
Cc1cn(-c2cc(NC(=O)c3ccc(C)c(Nc4nccc(-c5cccnc5)n4)c3)cc(C(F)(F)F)c2)cn1 [Nilotinib] (10000 nM) | 101% | 97.2% | 119% | 61.2% | 93% | 86.3% | 96.8% | 99.4% | 104% | 102% | 106% | 98% | 102% | 92.9% | 105% | 103% | 94.7% | 97.1% | 99.4%
O=C(CCCCCCC(=O)Nc1ccccc1)NO [Vorinostat] (10000 nM) | 22% | 31.5% | 8.35% | 47.7% | 24.4% | 22.8% | 43.6% | 43.3% | 44.2% | 27.8% | 52.2% | 29.6% | 3.2% | 15% | 64.3% | 46.1% | 17.3% | 34% | 14.1%
